The target of experiment [1] is EGFR wildtype (Homo sapiens, UniProt P00533). Nature of the experiment: Biochemical EGFR kinase assay (Lance Ultra TR-FRET), wildtype. The gist of the method: (§1)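 Kinase activity is measured by TR-FRET phosphopeptide detection. Compounds span 0.003 μM to 10 μM; the 1 h reaction at room temperature is quenched with EDTA, then labelled antibody (2 nM) is incubated 60 min before reading.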
(In TR-FRET formats the signal depends on donor and acceptor labels being close together.)

Experiment [2] concerns the target EGFR del19/C797S (Homo sapiens, UniProt P00533, C797S/DEL746-750). Briefly: Biochemical EGFR kinase assay (Lance Ultra TR-FRET), double mutant del19/C797S. The essentials:
as §1

Experiment [3] addresses EGFR L858R/C797S (Homo sapiens, UniProt P00533, C797S/L858R). Nature of the experiment: Biochemical EGFR kinase assay (Lance Ultra TR-FRET), double mutant L858R/C797S. The essentials:
as §1

Experiment [4] concerns the target EGFR del19/T790M/C797S (Homo sapiens, UniProt P00533, C797S/DEL746-750/T790M). Briefly: Biochemical EGFR kinase assay (Lance Ultra TR-FRET), triple mutant del19/T790M/C797S. The essentials: as §1
Experiment [5] deals with EGFR L858R/T790M/C797S (Homo sapiens, UniProt P00533, C797S/L858R/T790M). Nature of the experiment: Biochemical EGFR kinase assay (Lance Ultra TR-FRET), triple mutant L858R/T790M/C797S. The essentials:
as §1

Where [6] appears, read: ATP at Km, read-out: IC50 WT, Km ATP.
Where [7] appears, read: ATP at Km, read-out: IC50 del19/C797S, Km ATP.
Where [8] appears, read: ATP at Km, read-out: IC50 L858R/C797S, Km ATP.
Where [9] appears, read: ATP at Km, read-out: IC50 del19/T790M/C797S, Km ATP.
The mark [10] stands for this setting: IC50 del19/T790M/C797S, 100 μM ATP.
Where [11] appears, read: ATP at Km, read-out: IC50 L858R/T790M/C797S, Km ATP.
The mark [12] stands for this setting: IC50 L858R/T790M/C797S, 100 μM ATP.
The mark [13] stands for this setting: IC50 WT (nM) 100 μM ATP, 100 μM ATP.
[14] abbreviates: IC50 del19/C797S (nM) 100 μM ATP, 100 μM ATP.
[15] abbreviates: IC50 L858R/C797S (nM) 100 μM ATP, 100 μM ATP.
The mark [16] stands for this setting: IC50 del19/T790M/C797S (nM) 100 μM ATP, 100 μM ATP.
The mark [17] stands for this setting: IC50 L858R/T790M/C797S (nM) 100 μM ATP, 100 μM ATP.

Where two headings read alike, the source gives them in different places.

EGFR L858R/T790M/C797S, sequence (P00533 25-1210 T790M/C797S/L858R): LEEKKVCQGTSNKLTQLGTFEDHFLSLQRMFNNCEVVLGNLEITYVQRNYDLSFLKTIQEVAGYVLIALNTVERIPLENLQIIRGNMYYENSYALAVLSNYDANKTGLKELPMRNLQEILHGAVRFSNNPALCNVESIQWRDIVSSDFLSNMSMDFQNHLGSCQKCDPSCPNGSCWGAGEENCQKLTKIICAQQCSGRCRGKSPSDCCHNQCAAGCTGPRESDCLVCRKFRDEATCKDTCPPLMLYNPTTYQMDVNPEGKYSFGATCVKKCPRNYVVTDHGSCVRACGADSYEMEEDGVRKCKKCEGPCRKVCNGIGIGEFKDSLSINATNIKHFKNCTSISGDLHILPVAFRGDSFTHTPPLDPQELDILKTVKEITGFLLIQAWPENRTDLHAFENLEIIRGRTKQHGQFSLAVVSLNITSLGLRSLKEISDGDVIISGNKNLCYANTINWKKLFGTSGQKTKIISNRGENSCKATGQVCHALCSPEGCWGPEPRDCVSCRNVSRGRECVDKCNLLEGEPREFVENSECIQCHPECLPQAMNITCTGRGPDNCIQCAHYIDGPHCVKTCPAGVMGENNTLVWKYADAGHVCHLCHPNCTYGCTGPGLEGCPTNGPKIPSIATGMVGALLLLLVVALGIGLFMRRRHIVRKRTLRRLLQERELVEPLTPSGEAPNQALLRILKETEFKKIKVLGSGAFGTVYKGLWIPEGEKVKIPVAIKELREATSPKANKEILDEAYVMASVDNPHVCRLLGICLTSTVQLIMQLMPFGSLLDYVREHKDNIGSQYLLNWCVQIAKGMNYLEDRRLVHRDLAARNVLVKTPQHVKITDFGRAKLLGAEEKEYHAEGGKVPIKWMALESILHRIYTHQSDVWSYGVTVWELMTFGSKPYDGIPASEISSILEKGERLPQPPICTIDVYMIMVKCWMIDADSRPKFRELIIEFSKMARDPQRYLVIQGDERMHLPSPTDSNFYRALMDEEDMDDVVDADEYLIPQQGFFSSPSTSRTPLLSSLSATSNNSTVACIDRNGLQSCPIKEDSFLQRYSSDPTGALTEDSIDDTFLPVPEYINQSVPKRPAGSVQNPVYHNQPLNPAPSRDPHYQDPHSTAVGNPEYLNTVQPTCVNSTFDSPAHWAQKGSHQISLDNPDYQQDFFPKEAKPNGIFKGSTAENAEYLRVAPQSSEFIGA
EGFR wildtype, sequence (P00533 25-1210): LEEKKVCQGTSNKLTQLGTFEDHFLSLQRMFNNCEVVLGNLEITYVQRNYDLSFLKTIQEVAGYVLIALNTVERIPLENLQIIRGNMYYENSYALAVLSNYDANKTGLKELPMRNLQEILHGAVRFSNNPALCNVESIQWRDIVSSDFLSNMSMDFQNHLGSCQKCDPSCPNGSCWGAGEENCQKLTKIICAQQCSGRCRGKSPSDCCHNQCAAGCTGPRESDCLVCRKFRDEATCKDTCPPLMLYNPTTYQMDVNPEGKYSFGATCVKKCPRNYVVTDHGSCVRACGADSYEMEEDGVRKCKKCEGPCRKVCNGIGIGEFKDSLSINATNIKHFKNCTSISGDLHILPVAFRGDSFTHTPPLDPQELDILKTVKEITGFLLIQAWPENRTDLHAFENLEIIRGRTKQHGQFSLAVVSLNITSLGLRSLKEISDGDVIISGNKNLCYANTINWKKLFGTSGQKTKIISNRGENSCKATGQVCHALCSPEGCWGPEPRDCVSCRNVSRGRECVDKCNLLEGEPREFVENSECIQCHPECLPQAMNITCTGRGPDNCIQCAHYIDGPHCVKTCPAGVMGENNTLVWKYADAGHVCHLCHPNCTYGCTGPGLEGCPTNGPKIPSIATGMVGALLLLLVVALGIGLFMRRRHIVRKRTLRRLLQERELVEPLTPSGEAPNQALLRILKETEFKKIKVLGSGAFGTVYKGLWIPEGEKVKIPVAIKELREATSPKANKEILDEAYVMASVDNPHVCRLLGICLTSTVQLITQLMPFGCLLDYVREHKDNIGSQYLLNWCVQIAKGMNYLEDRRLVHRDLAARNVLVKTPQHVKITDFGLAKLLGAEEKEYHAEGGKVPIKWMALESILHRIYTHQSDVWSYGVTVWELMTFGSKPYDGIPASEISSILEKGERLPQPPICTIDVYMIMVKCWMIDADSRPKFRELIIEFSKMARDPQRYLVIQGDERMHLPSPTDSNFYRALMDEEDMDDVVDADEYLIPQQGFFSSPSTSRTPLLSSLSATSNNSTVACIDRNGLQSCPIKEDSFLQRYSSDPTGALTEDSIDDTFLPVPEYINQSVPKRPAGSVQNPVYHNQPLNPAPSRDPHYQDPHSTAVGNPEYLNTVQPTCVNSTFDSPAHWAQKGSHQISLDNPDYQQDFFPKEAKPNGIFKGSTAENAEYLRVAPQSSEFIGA
EGFR del19/C797S, sequence (P00533 with tags, fused parts or gaps DEL746-750/C797S): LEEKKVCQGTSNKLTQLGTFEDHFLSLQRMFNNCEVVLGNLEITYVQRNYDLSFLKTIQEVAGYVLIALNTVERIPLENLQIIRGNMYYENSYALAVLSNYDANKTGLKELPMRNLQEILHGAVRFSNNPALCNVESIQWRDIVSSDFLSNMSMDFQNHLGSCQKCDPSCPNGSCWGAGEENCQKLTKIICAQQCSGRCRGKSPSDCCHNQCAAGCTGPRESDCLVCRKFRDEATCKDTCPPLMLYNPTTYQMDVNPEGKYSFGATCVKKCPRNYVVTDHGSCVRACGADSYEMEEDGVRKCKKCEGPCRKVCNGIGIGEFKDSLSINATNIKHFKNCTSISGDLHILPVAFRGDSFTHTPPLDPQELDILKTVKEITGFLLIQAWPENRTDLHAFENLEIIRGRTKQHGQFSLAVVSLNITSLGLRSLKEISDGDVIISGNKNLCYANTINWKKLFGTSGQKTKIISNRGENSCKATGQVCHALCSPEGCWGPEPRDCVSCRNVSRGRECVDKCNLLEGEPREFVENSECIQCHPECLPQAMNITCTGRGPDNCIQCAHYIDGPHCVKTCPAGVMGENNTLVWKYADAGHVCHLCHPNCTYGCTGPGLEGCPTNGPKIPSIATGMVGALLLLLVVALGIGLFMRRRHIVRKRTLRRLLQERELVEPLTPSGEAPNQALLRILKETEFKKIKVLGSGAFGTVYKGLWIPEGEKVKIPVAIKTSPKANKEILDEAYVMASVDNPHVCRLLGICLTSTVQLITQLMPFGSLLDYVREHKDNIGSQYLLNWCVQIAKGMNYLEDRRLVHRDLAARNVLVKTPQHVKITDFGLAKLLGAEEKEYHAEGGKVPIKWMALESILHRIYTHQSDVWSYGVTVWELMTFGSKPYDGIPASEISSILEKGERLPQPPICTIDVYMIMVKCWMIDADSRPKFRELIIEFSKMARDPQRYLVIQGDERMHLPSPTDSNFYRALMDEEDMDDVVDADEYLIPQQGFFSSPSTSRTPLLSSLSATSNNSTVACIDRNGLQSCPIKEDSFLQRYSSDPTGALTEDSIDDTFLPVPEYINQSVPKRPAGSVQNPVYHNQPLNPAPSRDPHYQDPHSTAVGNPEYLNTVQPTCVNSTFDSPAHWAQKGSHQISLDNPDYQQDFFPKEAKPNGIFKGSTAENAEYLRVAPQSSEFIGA
EGFR del19/T790M/C797S, sequence (P00533 with tags, fused parts or gaps DEL746-750/T790M/C797S): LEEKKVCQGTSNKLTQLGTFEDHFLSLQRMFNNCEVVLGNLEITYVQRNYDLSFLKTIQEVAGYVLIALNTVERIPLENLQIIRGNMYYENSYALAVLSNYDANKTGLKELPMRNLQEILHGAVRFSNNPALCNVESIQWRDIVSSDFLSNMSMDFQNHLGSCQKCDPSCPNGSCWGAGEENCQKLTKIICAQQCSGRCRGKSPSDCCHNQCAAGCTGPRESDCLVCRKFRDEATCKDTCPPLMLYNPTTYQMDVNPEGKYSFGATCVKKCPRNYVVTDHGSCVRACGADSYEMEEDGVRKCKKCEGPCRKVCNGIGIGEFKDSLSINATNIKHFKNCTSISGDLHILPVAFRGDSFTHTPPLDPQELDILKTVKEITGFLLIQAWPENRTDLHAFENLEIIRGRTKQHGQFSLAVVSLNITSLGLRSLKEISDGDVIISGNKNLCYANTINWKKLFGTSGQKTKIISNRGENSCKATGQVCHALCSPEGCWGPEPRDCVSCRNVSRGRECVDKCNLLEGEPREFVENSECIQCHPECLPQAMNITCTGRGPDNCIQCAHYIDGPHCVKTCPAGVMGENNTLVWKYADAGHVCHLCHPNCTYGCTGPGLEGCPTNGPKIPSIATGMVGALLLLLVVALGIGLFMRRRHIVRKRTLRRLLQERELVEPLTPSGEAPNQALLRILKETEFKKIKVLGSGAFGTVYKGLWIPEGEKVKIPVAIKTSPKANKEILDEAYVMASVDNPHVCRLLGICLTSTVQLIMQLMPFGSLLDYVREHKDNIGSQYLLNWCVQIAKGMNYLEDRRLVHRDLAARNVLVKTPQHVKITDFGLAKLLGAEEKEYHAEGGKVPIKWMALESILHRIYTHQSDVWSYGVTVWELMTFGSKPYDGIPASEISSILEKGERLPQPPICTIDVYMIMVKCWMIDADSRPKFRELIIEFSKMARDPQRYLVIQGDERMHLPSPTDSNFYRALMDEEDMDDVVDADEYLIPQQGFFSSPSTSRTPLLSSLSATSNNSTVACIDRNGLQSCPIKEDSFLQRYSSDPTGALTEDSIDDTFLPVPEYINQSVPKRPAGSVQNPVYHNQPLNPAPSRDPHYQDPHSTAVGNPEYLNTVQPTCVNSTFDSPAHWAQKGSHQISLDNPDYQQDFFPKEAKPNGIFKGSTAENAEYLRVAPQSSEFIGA

As to `CC(C)(O)C1CCC(Nc2cc(Nc3ccnc(-c4cnn(S(=O)(=O)C5CC5)c4)n3)ncc2-c2ccc(C(O)C(F)(F)F)cn2)CC1` (stereo not drawn) [Example 229, 2-((1s,4s)-4-((6′-((2-(1-(Cyclopropylsulfonyl)-1H-pyrazol-4-yl)pyrimidin-4-yl)amino)-5-(2,2,2-trifluoro-1-hydroxyethyl)-[2,3′-bipyridin]-4′-yl)amino)cyclohexyl)propan-2-ol], the IC50 in experiment [1] (setting [6]) was 17.4 nM; in experiment [1] (IC50 WT, 100 μM ATP) it was 9480 nM; in experiment [2] (setting [7]), 4.8 nM; in experiment [2] (IC50 del19/C797S, 100 μM ATP), 20.8 nM; in experiment [3] (setting [8]) it was 11.5 nM; in experiment [3] (IC50 L858R/C797S, 100 μM ATP), 96.1 nM. Also, the IC50 in experiment [4] (setting [9]) is 3.3 nM; in experiment [4] (setting [10]) it was 4.4 nM; in experiment [5] (setting [11]), 0.9 nM; in experiment [5] (setting [12]), 1.9 nM.

For the molecule `C[C@]1(O)CC[C@@H](Nc2cc(Nc3ccnc(-c4cnn(S(=O)(=O)C5CC5)c4)n3)ncc2-c2ccc(N3CC(F)(F)C3)nn2)CC1` [Example 66, (1s,4s)-4-((2-((2-(1-(Cyclopropylsulfonyl)-1H-pyrazol-4-yl)pyrimidin-4-yl)amino)-5-(6-(3,3-difluoroazetidin-1-yl)pyridazin-3-yl)pyridin-4-yl)amino)-1-methylcyclohexan-1-ol], the IC50 in experiment [1] (setting [13]) is above 10000 nM; in experiment [1] (Km ATP, read-out: IC50 WT (nM) Km ATP), 11.5 nM; in experiment [2] (setting [14]) it was 0.9 nM; in experiment [2] (Km ATP, read-out: IC50 del19/C797S (nM) Km ATP) it was 0.4 nM; in experiment [3] (setting [15]), 12.2 nM; in experiment [3] (Km ATP, read-out: IC50 L858R/C797S (nM) Km ATP), 0.5 nM. In addition, the IC50 was 0.5 nM in experiment [4] (setting [16]); 0.3 nM in experiment [4] (Km ATP, read-out: IC50 del19/T790M/C797S (nM) Km ATP); 0.5 nM in experiment [5] (setting [17]); 0.1 nM in experiment [5] (Km ATP, read-out: IC50 L858R/T790M/C797S (nM) Km ATP).

As for `C[C@]1(O)CC[C@@H](Nc2cc(Nc3ccnc(-c4cnn(S(=O)(=O)C5CC5)c4)n3)ncc2-c2cc(NC3CC(F)(F)C3)ccn2)CC1` [Example 280, (1s,4s)-4-((6′-((2-(1-(Cyclopropylsulfonyl)-1H-pyrazol-4-yl)pyrimidin-4-yl)amino)-4-((3,3-difluorocyclobutyl)amino)-[2,3′-bipyridin]-4′-yl)amino)-1-methylcyclohexan-1-ol], the IC50 in experiment [1] (IC50 WT, 100 μM ATP) was above 10000 nM; in experiment [2] (IC50 del19/C797S, 100 μM ATP), 2.7 nM; in experiment [3] (IC50 L858R/C797S, 100 μM ATP) it was 20.3 nM; in experiment [4] (setting [10]), 1 nM; in experiment [5] (setting [12]) it was 0.5 nM.

Turning to `CC(C)(F)c1ccc(-c2cnc(Nc3ccnc(-c4cnn(S(=O)(=O)C5CC5)c4)n3)cc2NC2CCC(F)(F)CC2)nc1` [Example 240, N^6′-(2-(1-(Cyclopropylsulfonyl)-1H-pyrazol-4-yl)pyrimidin-4-yl)-N^4′-(4,4-difluorocyclohexyl)-5-(2-fluoropropan-2-yl)-[2,3′-bipyridine]-4′,6′-diamine], the IC50 in experiment [1] (setting [6]) was 733 nM; in experiment [2] (setting [7]), 134 nM; in experiment [3] (setting [8]) it was 15.4 nM; in experiment [4] (setting [9]) it was 19.8 nM; in experiment [5] (setting [11]), 5.9 nM.

`CC(C)(O)[C@H]1CC[C@@H](Nc2cc(Nc3ccnc(-c4cnn(S(=O)(=O)C5CC5)c4)n3)ncc2-c2ccc(N3CCOCC3)cn2)CC1` [Example 45, 2-((1s,4s)-4-((6′-((2-(1-(Cyclopropylsulfonyl)-1H-pyrazol-4-yl)pyrimidin-4-yl)amino)-5-morpholino-[2,3′-bipyridin]-4′-yl)amino)cyclohexyl)propan-2-ol]: the IC50 in experiment [1] (setting [13]) turned out to be 602 nM; in experiment [2] (setting [14]), 1.7 nM; in experiment [3] (setting [15]) it was 4.2 nM; in experiment [4] (setting [16]), 1.7 nM; in experiment [5] (setting [17]), 2.6 nM.

`O=S(=O)(C1CC1)n1cc(-c2nccc(Nc3cc(N[C@H]4CC[C@@H](CO)CC4)c(-c4cccc(F)n4)cn3)n2)cn1` [Example 272, ((1s,4s)-4-((6′-((2-(1-(Cyclopropylsulfonyl)-1H-pyrazol-4-yl)pyrimidin-4-yl)amino)-6-fluoro-[2,3′-bipyridin]-4′-yl)amino)cyclohexyl)methanol]: the IC50 in experiment [1] (setting [6]) was 1.4 nM; in experiment [1] (IC50 WT, 100 μM ATP), 495 nM; in experiment [2] (setting [7]), 0.6 nM; in experiment [2] (IC50 del19/C797S, 100 μM ATP), 0.7 nM; in experiment [3] (setting [8]) it was 1 nM; in experiment [3] (IC50 L858R/C797S, 100 μM ATP), 2.5 nM. For the same molecule, the IC50 is 0.3 nM in experiment [4] (setting [9]), 0.5 nM in experiment [4] (setting [10]), 0.1 nM in experiment [5] (setting [11]) and 0.3 nM in experiment [5] (setting [12]).

(Values after US12258328B2, “6-membered heteroaryl-containing aminopyridine compounds as EGFR inhibitors” (YUHAN CORPORATION, priority 2021, dated 2025).)
